Assay results reported in ChEMBL document CHEMBL1144384, “Hypoxia-selective activation of 5-fluorodeoxyuridine prodrug possessing indolequinone structure: radiolytic reduction and cytotoxicity characteristics” (Bioorg Med Chem Lett, 2005).

Test: Inhibitory concentration required to reduce cellular survival to 50% towards murine tumor EMT6/KU cell line
Assay type: functional, cell-based
Details: Mus musculus

O=c1[nH]c(=O)n([C@H]2C[C@H](O)[C@@H](CO)O2)cc1F [FLOXURIDINE]
IC50: 8.1 µM
